Experimental data: article PMC6194020, “Cryo-EM structures of human STEAP4 reveal mechanism of iron(III) reduction” (Nature Communications, 2018)
Numbering of substitutions follows the chain as printed. In names and notes the source's numbering stands.

Key:
[1] = molecular target: STEAP4EM (human STEAP4 residues K18-Q456, ΔN17ΔC3), non-TEV cleaved, with C-terminal GFP-Strep3 tag (human); assay: SEC-MALS; non-TEV cleaved STEAP4EM on Superdex200 10/300 increase in 20 mM Tris pH 8.0, 150 mM NaCl, 0.08% digitonin, 0.75 ml/min; protein conjugate analysis to separate protein and micelle
[2] = molecular target: T1, GFP-tagged full-length STEAP4 (Homo sapiens, UniProt Q687X5); assay: ferrozine ferric-reductase assay, FAD varied; assay type: biochemical; conditions: 200 µM Fe3+-NTA, 75 µM NADPH, 37 °C, SEC buffer pH 5.5, digitonin
T1 construct: full-length, C-terminal GFP-Strep3 tag kept; detergent-purified (digitonin), trimer
T1 sequence (Q687X5 1-459): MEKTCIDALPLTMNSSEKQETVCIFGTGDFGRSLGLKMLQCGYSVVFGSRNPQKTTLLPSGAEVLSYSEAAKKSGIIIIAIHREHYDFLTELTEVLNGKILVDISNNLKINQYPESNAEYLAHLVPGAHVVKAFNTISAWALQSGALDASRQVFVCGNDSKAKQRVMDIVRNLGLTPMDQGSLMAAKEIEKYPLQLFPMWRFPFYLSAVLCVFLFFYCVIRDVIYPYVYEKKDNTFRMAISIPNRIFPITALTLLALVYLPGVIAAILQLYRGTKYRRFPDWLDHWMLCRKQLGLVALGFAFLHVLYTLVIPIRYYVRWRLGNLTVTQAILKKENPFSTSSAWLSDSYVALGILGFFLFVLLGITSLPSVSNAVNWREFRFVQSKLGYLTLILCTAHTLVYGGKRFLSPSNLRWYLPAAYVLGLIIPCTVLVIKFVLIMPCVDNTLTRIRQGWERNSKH

[3] = molecular target: T2, STEAP4EM (Homo sapiens, UniProt Q687X5); assay: ferrozine ferric-reductase assay, FAD varied, binding curve fit; assay type: biochemical; conditions: 200 µM Fe3+-NTA, 75 µM NADPH, 37 °C, SEC buffer pH 5.5, digitonin; Kd from activity curve; also seen in cryo-EM structures
T2 construct: gene STEAP4; residues K18-Q456 (deltaN17 deltaC3), C-terminal GFP-Strep3 tag removed by TEV; codon-optimised, HEK293 GNTI- cells; digitonin-solubilised homotrimer; cytosolic oxidoreductase domain plus transmembrane domain
T2 sequence (Q687X5 18-456): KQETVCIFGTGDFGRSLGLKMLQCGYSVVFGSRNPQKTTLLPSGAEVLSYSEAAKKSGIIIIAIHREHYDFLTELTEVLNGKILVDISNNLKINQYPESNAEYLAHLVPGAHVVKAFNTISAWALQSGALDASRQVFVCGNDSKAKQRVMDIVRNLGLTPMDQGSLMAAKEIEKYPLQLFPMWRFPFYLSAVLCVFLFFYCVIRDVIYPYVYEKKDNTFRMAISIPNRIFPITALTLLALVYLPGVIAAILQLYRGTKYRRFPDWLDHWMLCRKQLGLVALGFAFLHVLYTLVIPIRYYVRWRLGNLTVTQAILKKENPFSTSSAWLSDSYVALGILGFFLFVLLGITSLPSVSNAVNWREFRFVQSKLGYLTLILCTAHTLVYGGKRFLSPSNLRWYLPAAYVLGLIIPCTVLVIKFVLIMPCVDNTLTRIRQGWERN

[4] = molecular target: T2, STEAP4EM; assay: ferric-reductase assay with FMN instead of FAD; assay type: biochemical; conditions: FMN in place of FAD; construct (STEAP4EM or full length) not stated in main text
[5] = molecular target: T1, GFP-tagged full-length STEAP4; assay: ferrozine ferric-reductase assay, NADPH varied; assay type: biochemical; conditions: 200 µM Fe3+-NTA, 10 µM FAD, 37 °C, SEC buffer pH 5.5, digitonin
[6] = molecular target: T3, GFP-tagged full-length STEAP4 (Homo sapiens, UniProt Q687X5, S138Q); assay: ferrozine ferric-reductase assay, NADPH varied; assay type: biochemical; conditions: 200 µM Fe3+-NTA, 10 µM FAD, 37 °C, SEC buffer pH 5.5, digitonin
T3 construct: full-length, C-terminal GFP-Strep3 tag kept; detergent-purified (digitonin), trimer
T3 sequence (Q687X5 1-459 S138Q): T1 sequence (Q687X5 1-459) with S138Q

[7] = substrate: NC(=O)C1=CN([C@@H]2O[C@H](COP(=O)(O)OP(=O)(O)OC[C@H]3O[C@@H](n4cnc5c(N)ncnc54)[C@H](OP(=O)(O)O)[C@@H]3O)[C@@H](O)[C@H]2O)C=CC1; assay: ferrozine ferric-reductase assay, NADPH varied; assay type: biochemical, Homo sapiens; conditions: 200 µM Fe3+-NTA, 10 µM FAD, 37 °C, SEC buffer pH 5.5, digitonin, also seen in cryo-EM structure
[8] = molecular target: the molecule itself; assay: not stated; purified S138Q mutant; data in Supplementary Fig. 13

How did the stoichiometry N [1] turn out when “STEAP4EM (human STEAP4 residues K18-Q456, ΔN17ΔC3), non-TEV cleaved, with C-terminal GFP-Strep3 tag (enzyme)” was run?
The stoichiometry N was 3.

How did the “ferrozine ferric-reductase assay, FAD varied” value [2] turn out when `Cc1cc2nc3c(=O)[nH]c(=O)nc-3n(C[C@H](O)[C@H](O)[C@H](O)COP(=O)(O)OP(=O)(O)OC[C@H]3O[C@@H](n4cnc5c(N)ncnc54)[C@H](O)[C@@H]3O)c2cc1C` [FAD] was run?
The value was “full-length STEAP4 wildtype (WT) and S138Q mutant with varying FAD concentrations”.

And the Kd [3]?
Its Kd is 1200 nM.

`Cc1cc2nc3c(=O)[nH]c(=O)nc-3n(C[C@H](O)[C@H](O)[C@H](O)COP(=O)(O)O)c2cc1C` [FMN] was tested. Which “ferric-reductase assay with FMN instead of FAD” value [4] did it give?
Its value is “FMN may act as a cofactor in STEAP4-catalyzed iron reduction”.

How did the “ferrozine ferric-reductase assay, NADPH varied” value [5] turn out when `NC(=O)C1=CN([C@@H]2O[C@H](COP(=O)(O)OP(=O)(O)OC[C@H]3O[C@@H](n4cnc5c(N)ncnc54)[C@H](OP(=O)(O)O)[C@@H]3O)[C@@H](O)[C@H]2O)C=CC1` [NADPH] was run?
Its value is “full-length STEAP4 WT and S138Q mutant with varying NADPH concentrations”.

What about the “ferrozine ferric-reductase assay, NADPH varied” value [6] of the same molecule?
Its value is “displayed strongly impaired ferric-reductase activity”.

B1: STEAP4EM (Homo sapiens) (protein)
chain: T2 sequence (Q687X5 18-456)
notes: residues K18-Q456 (deltaN17 deltaC3), C-terminal GFP-Strep3 tag removed by TEV; codon-optimised, HEK293 GNTI- cells; digitonin-solubilised homotrimer; cytosolic oxidoreductase domain plus transmembrane domain
With B1 as the molecule, how does the Km [7] read?
The Km was 4.2 µM.

B2: full-length human STEAP4 S138Q mutant (enzyme, UniProt Q687X5 1-459, looked up)
chain: T1 sequence (Q687X5 1-459) with S138Q
notes: six-transmembrane epithelial antigen of the prostate 4 (STEAP4), human, full length, with S138Q; source: detergent-purified
B2 was tested. Which “stoichiometry N” value [8] did it give?
The value was 3.
